Consider eight molecules from patent publication US10829742B2, “Production of xylitol from glucose by a recombinant strain” (ROQUETTE FRERES, priority 2014, dated 2020).

Read-outs that look alike come from different tables or passages of the source.

For experiment [1], the system named is NADH-specific D-ketopentose-oxidoreductase. The conditions noted are these: crude extract; cited from earlier work.
Experiment [2] has as its system NADPH-specific D-ketopentose-oxidoreductase. The experiment can be described thus: NADPH-specific D-ketopentose-oxidoreductase kinetic parameters. In kind it is biochemical, P. ohmeri ATCC 20209. The conditions noted are these: NADP^+ added in excess, in vitro. The text has this:
As an illustration of its performances, the following tables indicate the enzyme activities involved in the arabitol metabolic pathway of Pichia ohmeri (Sophie […] Thesis, 1992) The Michaelis-Menten constants highlight the affinities of the NADH and NADPH-D-ketopentose-oxidoreductases for each substrate and the corresponding maximum velocities. [table] The Haldane relationship predicts in vivo enzyme kinetic behaviors. The inhibitory effect of NADP^+ on NADPH-specific D-ketopentose-oxidoreductase has been determined in vitro. The activity is 80% less when NADP^+ is added in excess.

Experiment [3] has the same test system. The conditions noted are these: crude extract; cited from earlier work.
In a further experiment the test system is Transketolase. The conditions noted are these: crude extract, cited from earlier work.
Another experiment relates to Acid phosphatase. The conditions noted are these: crude extract; cited from earlier work.
For experiment [4], the system named is D-Ribulose-5-P 3-epimerase. To be noted: crude extract; cited from earlier work.
Experiment [5] concerns D-Ribose-5-P keto-isomerase. To be noted: crude extract; cited from earlier work.

By Km is commonly meant the concentration of substrate that gives half-maximal velocity. With `OC[C@@H](O)[C@@H](O)[C@@H](O)CO` [Ribitol], in experiment [1], the Michaelis-Menten constant (Km) was 16 mM and the VM is listed as 0.16 U/mg.
For `NC(=O)c1ccc[n+]([C@@H]2O[C@H](COP(=O)([O-])OP(=O)(O)OC[C@H]3O[C@@H](n4cnc5c(N)ncnc54)[C@H](OP(=O)(O)O)[C@@H]3O)[C@@H](O)[C@H]2O)c1` [NADP^+], the “inhibitory effect: activity less” value in experiment [2] is reported as 80%.
As for `O=C(CO)[C@H](O)[C@H](O)CO` [D-Ribulose], in experiment [3], the Km was 72 mM and the VM is given as 3.4 U/mg. Also, in experiment [1], the Km is 90 mM and the VM is 1 U/mg.
Turning to `OC[C@@H](O)[C@H](O)[C@@H](O)CO` [Xylitol], in experiment [3], the VM was 0.15 U/mg. In experiment [1], the Km was 7 mM and the VM is on record as 0.2 U/mg.
As to `OC[C@@H](O)C(O)[C@H](O)CO` [D-Arabitol], the VM in experiment [3] is on record as 0.8 U/mg.
`O=C(CO)[C@@H](O)[C@H](O)CO` [D-Xylulose]: the VM in experiment [3] was 1.5 U/mg. In experiment [1], the Km is 5 mM and the VM is 0.6 U/mg.
On to `O=C(CO)[C@@H](O)[C@H](O)COP(=O)(O)O` [D-Xylulose-5-P], for which the Km is 0.2 mM in the experiment on Transketolase (Transketolase (D-ribose-5-P)), 0.6 mM in the experiment on Transketolase (Transketolase (Erythrose-4-P)), 16 mM in the experiment with Acid phosphatase and 6.6 mM in experiment [4]. Besides, the VM in the experiment with Transketolase (Transketolase (D-ribose-5-P)) is given as 0.9 U/mg; in the experiment on Transketolase (Transketolase (Erythrose-4-P)), 1.45 U/mg; in the experiment with Acid phosphatase, 0.11 U/mg; in experiment [4], 0.7 U/mg.
As to `O=C(CO)[C@H](O)[C@H](O)COP(=O)(O)O` [D-Ribulose-5-P], the Km in experiment [5] is 0.35 mM; in the experiment on Acid phosphatase, 4.3 mM; in experiment [4] it was 6.3 mM. Further, the results for the VM (in experiment [5]; in the experiment on Acid phosphatase; in experiment [4]) were 1.8 U/mg, 0.65 U/mg and 3 U/mg, respectively.
